# In patent publication US7262052B1, “α-2/δ gene” (Warner Lambert Company, priority 1999, dated 2007):
# “And” between values parts separate entries of the source, which are not always exact repeats. Equal entries are not always repeated.
# Experiments:
# Human α2δ-B = molecular target: T1, Human α2δ-B (Homo sapiens, UniProt Q9NY47); test: [3H]gabapentin saturation binding, membranes of transiently transfected COS-7 cells
# T1 construct: transiently transfected with the full-length porcine α2δ-A, and human α2δ-B genes; expressed in transfected cells; host or cells: COS-7 cells, pcDNA3.1 vector, lipofectamine; membranes
# T1 sequence (Q9NY47 19-1145 isoform Q9NY47-3 limits assumed): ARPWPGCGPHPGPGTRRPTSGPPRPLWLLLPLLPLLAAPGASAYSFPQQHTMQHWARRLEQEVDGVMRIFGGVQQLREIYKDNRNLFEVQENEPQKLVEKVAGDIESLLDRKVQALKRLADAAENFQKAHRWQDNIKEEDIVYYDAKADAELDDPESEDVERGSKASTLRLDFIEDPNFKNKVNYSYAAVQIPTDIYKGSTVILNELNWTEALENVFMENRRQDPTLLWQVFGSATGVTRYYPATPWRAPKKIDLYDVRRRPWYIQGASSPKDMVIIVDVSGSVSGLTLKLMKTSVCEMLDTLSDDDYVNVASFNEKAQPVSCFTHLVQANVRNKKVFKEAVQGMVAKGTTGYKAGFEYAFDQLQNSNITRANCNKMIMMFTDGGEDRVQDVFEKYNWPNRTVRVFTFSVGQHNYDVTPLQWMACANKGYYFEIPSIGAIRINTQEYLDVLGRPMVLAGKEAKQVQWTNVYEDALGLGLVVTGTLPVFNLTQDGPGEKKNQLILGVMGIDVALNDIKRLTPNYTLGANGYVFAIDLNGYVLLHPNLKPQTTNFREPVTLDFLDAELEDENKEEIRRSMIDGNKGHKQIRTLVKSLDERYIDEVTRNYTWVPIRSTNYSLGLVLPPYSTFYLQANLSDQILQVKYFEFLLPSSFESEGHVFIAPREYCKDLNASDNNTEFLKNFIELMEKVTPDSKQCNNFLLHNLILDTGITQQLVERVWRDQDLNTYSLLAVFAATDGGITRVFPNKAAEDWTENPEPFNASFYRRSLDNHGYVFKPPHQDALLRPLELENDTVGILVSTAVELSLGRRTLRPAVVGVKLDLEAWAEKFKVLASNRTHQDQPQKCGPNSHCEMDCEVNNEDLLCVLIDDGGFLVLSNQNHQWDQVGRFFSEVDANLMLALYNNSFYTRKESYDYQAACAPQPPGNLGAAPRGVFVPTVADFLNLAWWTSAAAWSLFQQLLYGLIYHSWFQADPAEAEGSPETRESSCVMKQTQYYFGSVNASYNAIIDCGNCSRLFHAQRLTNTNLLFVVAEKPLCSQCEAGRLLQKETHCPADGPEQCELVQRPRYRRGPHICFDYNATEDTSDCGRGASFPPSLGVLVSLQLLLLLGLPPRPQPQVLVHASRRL
# Source text: […]. […] […].
# The filters were then counted in a scintillation counter.
# [1] = test system: voltage-gated Ca2+ channels (α1B, β1C subunits); test: Ca2+ channel currents in Xenopus oocytes injected with cRNA, two-electrode voltage clamp; format: cell-based; conditions: for increase in current compared to no α2δ subunits: co-injected with α1B and β1C in Xenopus oocytes
# Experimental: Since α2δ-C has sequence homology to α2δ-A, and α2δ-A functions as a subunit of VSCCs, experiments were undertaken to determine if α2δ-C can replace α2δ-A and produce functional VSCCs. Xenopus oocytes were isolated using standard techniques and injected with cRNA for α1B, β1C and α2δ-C subunits of voltage-gated Ca^2+ channels. Four days to 1 week following injection of cRNA, Ca^2+ channel currents were measured using two-electrode voltage clamp with 5 mM Ba^2+ as the charge carrier. Test pulses to +10 mV from a holding membrane potential of −80 mV were applied to evoke Ca^2+ channel currents. Peak inward currents evoked during the test pulse were measured. The amplitude of inward currents is proportional to the expression level of voltage-gated Ca^2+ channels.
Molecule,"Kd (Human α2δ-B; KD, single determinations (n = 2), 21° C., COS-7 membranes)","Kd (Human α2δ-B; Mean KD, mean of n = 2) [nM]",binding of [3H]gabapentin (in words) (Human α2δ-B; full-length gene product expressed transiently in COS-7),increase in current compared to no α2δ subunits [1] [fold],"peak inward current amplitude ([1]; co-injected with α1B and β1C, 5 mM Ba2+, test pulse to +10 mV from −80 mV, n=20, p<0.01 vs no α2δ) [nA]"
"NCC1(CC(=O)O)CCCCC1 [[3H]gabapentin, gabapentin]",32.6 nM and 87.2 nM,59.9,high affinity,,
"α2δA: known α2δ-A subunit of the voltage-sensitive calcium channel, comparator",,,,20,
"α2δC: novel human α2δ-C calcium channel subunit (SEQ ID NO 5), expressed from injected cRNA (protein, listed as Homo sapiens) MAGPGSPRRASRGASALLAAALLYAALGDVVRSEQQIPLSVVKLWASAFGGEIKSIAAKYSGSQLLQKKYKEYEKDVAIEEIDGLQLVKKLAKNMEEMFHKKSEAVRRLVEAAEEAHLKHEFDADLQYEYFNAVLINERDKDGNFLELGKEFILAPNDHFNNLPVNISLSDVQVPTNMYNKDPAIVNGVYWSESLNKVFVDNFDRDPSLIWQYFGSAKGFFRQYPGIKWEPDENGVIAFDCRNRKWYIQAATSPKDVVILVDVSGSMKGLRLTIAKQTVSSILDTLGDDDFFNIIAYNEELHYVEPCLNGTLVQADRTNKEHFREHLDKLFAKGIGMLDIALNEAFNILSDFNHTGQGSICSQAIMLITDGAVDTYDTIFAKYNWPDRKVRIFTYLIGREAAFADNLKWMACANKGFFTQISTLADVQENVMEYLHVLSRPKVIDQEHDVVWTEAYIDSTLTDDQGPVLMTTVAMPVFSKQNETRSKGILLGVVGTDVPVKELLKTIPKYKLGIHGYAFAITNNGYILTHPELRLLYEEGKKRRKPNYSSVDLSEVEWEDRDDVLRNAMVNRKTGKFSMEVKKTVDKGKRVLVMTNDYYYTDIKGTPFSLGVALSRGHGKYFFRGNVTIEEGLHDLEHPDVSLADEWSYCNTDLHPEHRHLSQLEAIKLYLKGKEPLLQCDKELIQEVLFDAVVSAPIEAYWTSLALNKSENSDKGVEVAFLGTRTGLSRINLFVGAEQLTNQDFLKAGDKENIFNADHFPLWYRRAAEQIPGSFVYSIPFSTGPVNKSNVVTASTSIQLLDERKSPVVAAVGIQMKLEFFQRKFWTASRQCASLDGKCSISCDDETVNCYLIDNNGFILVSEDYTQTGDFFGEIEGAVMNKLLTMGSFKRITLYDYQAMCRANKESSDGAHGLLDPYNAFLSAVKWIMTELVLFLVEFNLCSWWHSDMTAKAQKLKQTLEPCDTEYPAFVSERTIKETTGNIACEDCSKSFVIQQIPSSNLFMVVVDSSCLCESVAPITMAPIEIRYNESLKCERLKAQKIRRRPESCHGFHPEENARECGGAPSLQAQTVLLLLPLLLMLFSR",,,,2,213±12
